This is an account of results in US20250228239A1, “MOLECULES HAVING PESTICIDAL UTILITY, AND INTERMEDIATES, COMPOSITIONS, AND PROCESSES, RELATED THERETO” (priority 2024, published 2025).

In experiment [1] the test system is Beet Armyworm (Spodoptera exigua, LAPHEG). Kind of experiment: Bioassays on Beet Armyworm (BAW), 128-well diet tray assay. Format: in vivo. The settings on record: Spodoptera exigua. Summed up:
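Eight diet wells per compound were treated at 50 μg/cm^2 (acetone-water 90:10), dried, then infested with 1–5 second-instar larvae each. After five to seven days at 25 °C under 14:10 photoperiod, mortality was scored and averaged across wells.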

In experiment [2] the test system is Cabbage Looper (Trichoplusia ni, TRIPNI). Kind of experiment: Bioassays on Cabbage Looper (CL), 128-well diet tray assay. Format: in vivo. The settings on record: Trichoplusia ni. A digest of the protocol: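 Second-instar larvae (1–5 per well) placed on artificial diet surface-treated with 50 μg/cm^2 test molecule applied in 90:10 acetone-water and dried. Held at 25° C., 14:10 light-dark, for five to seven days. Percent mortality scored per well and averaged over eight wells.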

The mark [3] stands for this setting: Beet Armyworm, rating class, read-out: BAW.
Setting [4] is: Cabbage Looper, rating class, read-out: CL.
[5] abbreviates: Beet Armyworm, Table ABC / ABC-DP rating, read-out: BAW rating.
[6] abbreviates: Cabbage Looper, Table ABC / ABC-DP rating, read-out: CL rating.
Where [7] appears, read: Table ABC: Biological Results, species BAW, read-out: BAW.
Setting [8] is: Table ABC: Biological Results, species CL, read-out: CL.

Like-named read-outs stand apart in the source and are kept apart here.

Take `CC(=O)Nc1c(F)ccc(NC(=O)c2cc(NC(=O)[C@H]3[C@H](c4cc(Cl)c(Cl)c(Cl)c4)C3(Cl)Cl)cc(F)c2Cl)c1F` [F1504, N-(3-Acetamido-2,4-difluorophenyl)-2-chloro-5-((1R,3R)-2,2-dichloro-3-(3,4,5-trichlorophenyl)cyclopropane-1-carboxamido)-3-fluorobenzamide]: the pest or weed control at 50 µg/cm2 in experiment [1] (setting [3]) and in experiment [2] (setting [4]) was 50 to 100% in each case.
`CC(F)(F)CCC(=O)Nc1c(F)ccc(NC(=O)c2cc(NC(=O)[C@H]3[C@H](c4ccc(Cl)c(Cl)c4)C3(Cl)Cl)ccc2Cl)c1F` [F1860, 2-Chloro-5-((1R,3R)-2,2-dichloro-3-(3,4-dichlorophenyl)cyclopropane-1-carboxamido)-N-(3-(4,4-difluoropentanamido)-2,4-difluorophenyl)benzamide]: the pest or weed control at 50 µg/cm2 in experiment [1] (setting [5]) and in experiment [2] (setting [6]) was 50 to 100% in each case.
The mortality is the percentage killed. Turning to `Cc1cccc(N(C)NC(=O)c2cc(NC(=O)[C@H]3[C@H](c4cc(Cl)cc(Cl)c4)C3(Cl)Cl)ccc2Cl)c1` (relative stereo) [F2574, trans-2,2-Dichloro-N-(4-chloro-3-(2-methyl-2-(m-tolyl)hydrazine-1-carbonyl)phenyl)-3-(3,5-dichlorophenyl)cyclopropane-1-carboxamide], the mortality at 50 µg/cm2 in experiment [1] (168 h, second instar larvae, 50 μg/cm^2 of test molecule on artificial diet, 25° C., five to seven days, average of eight wells, read-out: BAW % Control (or Mortality) rating) lay within 50 to 100%; in experiment [2] (168 h, second instar larvae, 50 μg/cm^2 of test molecule on artificial diet, 25° C., five to seven days, average of eight wells, read-out: CL % Control (or Mortality) rating), 50 to 100%. Besides, the pest or weed control at 50 µg/cm2 in experiment [1] (setting [5]) and in experiment [2] (setting [6]) was 50 to 100% each time.
As to `O=C(Nc1ccc(F)c(NC(=O)C(F)(F)F)c1F)c1cc(NC(=O)[C@H]2[C@H](c3cc(Cl)cc(Cl)c3)C2(Cl)Cl)cc(F)c1Cl` [F1330, 2-Chloro-5-((1R,3R)-2,2-dichloro-3-(3,5-dichlorophenyl)cyclopropane-1-carboxamido)-N-(2,4-difluoro-3-(2,2,2-trifluoroacetamido)phenyl)-3-fluorobenzamide], the pest or weed control at 50 µg/cm2 in experiment [1] (setting [7]) and in experiment [2] (setting [8]) was 50 to 100% throughout.
Regarding `Cc1cc(NC(=O)[C@H]2[C@H](c3ccc(F)c(C(F)(F)F)c3)C2(Cl)Cl)cc(C(=O)Nc2ccc(F)c(N)c2F)c1Cl` [F1458, N-(3-Amino-2,4-difluorophenyl)-2-chloro-5-((1R,3R)-2,2-dichloro-3-(4-fluoro-3-(trifluoromethyl)phenyl)cyclopropane-1-carboxamido)-3-methylbenzamide], the pest or weed control at 50 µg/cm2 in experiment [1] (setting [3]) and in experiment [2] (setting [4]) was 50 to 100% throughout.
Regarding `Nc1c(F)ccc(NC(=O)c2cc(NC(=O)[C@H]3[C@H](c4ccc(F)c(Cl)c4)C3(Cl)Cl)cc(F)c2Cl)c1F` (relative stereo) [F1156, trans-N-(3-Amino-2,4-difluorophenyl)-2-chloro-5-(2,2-dichloro-3-(3-chloro-4-fluorophenyl)cyclopropane-1-carboxamido)-3-fluorobenzamide], the pest or weed control at 50 µg/cm2 in experiment [1] (setting [7]) and in experiment [2] (setting [8]) was 50 to 100% in each case.
With `COc1c(F)ccc(NC(=O)c2cc(NC(=O)[C@H]3[C@H](c4cc(Cl)cc(Cl)c4)C3(Cl)Cl)ccc2Cl)c1F` (relative stereo) [F1171, trans-2-chloro-5-(2,2-dichloro-3-(3,5-dichlorophenyl)cyclopropane-1-carboxamido)-N-(2,4-difluoro-3-methoxyphenyl)benzamide], the pest or weed control at 50 µg/cm2 in experiment [1] (setting [7]) and in experiment [2] (setting [8]) was 50 to 100% each time.
As for `O=C(Nc1ccc(F)c(NC(=O)C(F)(F)C(F)(F)OC(F)(F)F)c1F)c1cc(NC(=O)[C@H]2[C@H](c3ccc(F)c(C(F)(F)F)c3)C2(Cl)Cl)ccc1Cl` [F1834, 2-Chloro-5-((1R,3R)-2,2-dichloro-3-(4-fluoro-3-(trifluoromethyl)phenyl)cyclopropane-1-carboxamido)-N-(2,4-difluoro-3-(2,2,3,3-tetrafluoro-3-(trifluoromethoxy)propanamido)phenyl)benzamide], the pest or weed control at 50 µg/cm2 in experiment [1] (setting [5]) and in experiment [2] (setting [6]) was 50 to 100% each time.
On to `Cc1cc(NC(=O)[C@H]2[C@H](c3ccc(F)c(C(F)(F)F)c3)C2(Cl)Cl)cc(C(=O)Nc2cc(NC(=O)C(F)(F)F)c(F)cc2F)c1Cl` [F1501, 2-Chloro-5-((1R,3R)-2,2-dichloro-3-(4-fluoro-3-(trifluoromethyl)phenyl)cyclopropane-1-carboxamido)-N-(2,4-difluoro-5-(2,2,2-trifluoroacetamido)phenyl)-3-methylbenzamide], for which the pest or weed control at 50 µg/cm2 in experiment [1] (setting [3]) and in experiment [2] (setting [4]) was 50 to 100% in each case.
`O=C(Nc1ccc(F)c(NC(=O)C(F)F)c1F)c1cc(NC(=O)[C@H]2[C@H](c3ccc(F)c(I)c3)C2(Cl)Cl)ccc1Cl` (relative stereo) [F1624, trans-2-Chloro-5-(2,2-dichloro-3-(4-fluoro-3-iodophenyl)cyclopropane-1-carboxamido)-N-(3-(2,2-difluoroacetamido)-2,4-difluorophenyl)benzamide]: the pest or weed control at 50 µg/cm2 in experiment [1] (setting [3]) and in experiment [2] (setting [4]) was 50 to 100% throughout.
In the case of `Nc1c(F)ccc(NC(=O)c2cc(NC(=O)C3C(c4cc(F)cc(Br)c4F)C3(Cl)Cl)ccc2Cl)c1F` (stereo not drawn) [F1097, cis-(3-Amino-2,4-difluorophenyl)-5-(3-(3-bromo-2,5-difluorophenyl)-2,2-dichlorocyclopropane-1-carboxamido)-2-chlorobenzamide], the pest or weed control at 50 µg/cm2 in experiment [1] (setting [7]) and in experiment [2] (setting [8]) was 50 to 100% each time.
`Cc1cc(NC(=O)[C@H]2[C@H](c3ccc(Cl)c(Cl)c3)C2(Cl)Cl)cc(C(=O)Nc2cc(NC(=O)C(F)F)c(F)cc2F)c1Cl` [F1496, 2-Chloro-5-((1R,3R)-2,2-dichloro-3-(3,4-dichlorophenyl)cyclopropane-1-carboxamido)-N-(5-(2,2-difluoroacetamido)-2,4-difluorophenyl)-3-methylbenzamide]: the pest or weed control at 50 µg/cm2 in experiment [1] (setting [3]) and in experiment [2] (setting [4]) was 50 to 100% in each case.
Regarding `Nc1c(F)ccc(NC(=O)c2cc(NC(=O)[C@H]3[C@H](c4cc(Cl)cc(Cl)c4)C3(F)F)ccc2Cl)c1F` (relative stereo) [F1080, trans-N-(3-Amino-2,4-difluorophenyl)-2-chloro-5-(3-(3,5-dichlorophenyl)-2,2-difluorocyclopropane-1-carboxamido)benzamide], the pest or weed control at 50 µg/cm2 in experiment [1] (setting [7]) and in experiment [2] (setting [8]) was 50 to 100% each time.
In the case of `O=C(Nc1c(F)ccc(NC(=O)c2cc(NC(=O)[C@H]3[C@H](c4ccc(F)c(C(F)(F)F)c4)C3(Cl)Cl)ccc2Cl)c1F)c1ccns1` [F1817, N-(3-(2-Chloro-5-((1R,3R)-2,2-dichloro-3-(4-fluoro-3-(trifluoromethyl)phenyl)cyclopropane-1-carboxamido)benzamido)-2,6-difluorophenyl)isothiazole-5-carboxamide], the pest or weed control at 50 µg/cm2 in experiment [1] (setting [5]) and in experiment [2] (setting [6]) was 50 to 100% in each case.
`Nc1ccc(F)c(NC(=O)c2cc(NC(=O)[C@H]3[C@H](c4cc(Cl)c(Cl)c(Cl)c4)C3(Cl)Cl)cc(F)c2Cl)c1F` [F1337, N-(3-Amino-2,6-difluorophenyl)-2-chloro-5-((1R,3R)-2,2-dichloro-3-(3,4,5-trichlorophenyl)cyclopropane-1-carboxamido)-3-fluorobenzamide]: the pest or weed control at 50 µg/cm2 in experiment [1] (setting [7]) and in experiment [2] (setting [8]) was 50 to 100% each time.
As for `Cc1cc(NC(=O)[C@H]2[C@H](c3cc(Cl)c(Cl)c(Cl)c3)C2(Cl)Cl)cc(C(=O)Nc2c(F)ccc(NC(=O)C(F)(F)F)c2F)c1Cl` [F1432, 2-Chloro-5-((1R,3R)-2,2-dichloro-3-(3,4,5-trichlorophenyl)cyclopropane-1-carboxamido)-N-(2,6-difluoro-3-(2,2,2-trifluoroacetamido)phenyl)-3-methylbenzamide], the pest or weed control at 50 µg/cm2 in experiment [1] (setting [3]) and in experiment [2] (setting [4]) was 50 to 100% each time.
Take `O=C(Nc1cc(F)c(NC(=O)C(F)F)c(F)c1)c1cc(NC(=O)[C@H]2[C@H](c3ccc(Cl)c(Cl)c3)C2(Cl)Cl)ccc1Cl` (relative stereo) [F1122, trans-2-Chloro-5-(2,2-dichloro-3-(3,4-dichlorophenyl)cyclopropane-1-carboxamido)-N-(4-(2,2-difluoroacetamido)-3,5-difluorophenyl)benzamide]: the pest or weed control at 50 µg/cm2 in experiment [1] (setting [7]) and in experiment [2] (setting [8]) was 50 to 100% in each case.
For the compound `CC(=O)Nc1ccc(NC(=O)c2cc(NC(=O)[C@H]3[C@H](c4ccc(F)c(Cl)c4)C3(Cl)Cl)cc(F)c2F)cc1` (relative stereo) [F1210, trans-N-(4-Acetamidophenyl)-5-(2,2-dichloro-3-(3-chloro-4-fluorophenyl)cyclopropane-1-carboxamido)-2,3-difluorobenzamide], the pest or weed control at 50 µg/cm2 in experiment [1] (setting [7]) and in experiment [2] (setting [8]) was 50 to 100% in each case.
`O=C(NNc1ccc(Cl)c(Cl)c1)c1cc(NC(=O)[C@H]2[C@H](c3cc(Cl)cc(Cl)c3)C2(Cl)Cl)ccc1Cl` (relative stereo) [F2560, trans-2,2-Dichloro-N-(4-chloro-3-(2-(3,4-dichlorophenyl)hydrazine-1-carbonyl)phenyl)-3-(3,5-dichlorophenyl)cyclopropane-1-carboxamide]: the pest or weed control at 50 µg/cm2 in experiment [1] (setting [5]) and in experiment [2] (setting [6]) was 50 to 100% throughout.
